Data taken from PMC3969223, “Characterization of WZ4003 and HTH-01-015 as selective inhibitors of the LKB1-tumour-suppressor-activated NUAK kinases” (Biochemical Journal, 2013).

How the values were obtained:
[1] = test system: MYPT1 Ser445 phosphorylation; experiment: MYPT1 Ser445 phosphorylation, HEK-293 Flp/In T-Rex overexpressing wild-type HA-NUAK1; format: cell-based, human; conditions: HEK-293 expressing wild-type NUAK1; 3–10 μM
Method: (§1) HEK (human embryonic kidney)-293 and U2OS cells were cultured in DMEM (Dulbecco's modified Eagle's medium) supplemented with 10% FBS, 2 mM glutamine and 1×antibacterial/antimycotic solution. NUAK1^+/+ and NUAK1^−/− MEFs were cultured in DMEM supplemented with 10% (v/v) FBS and 2 mM glutamine, 1×antibacterial/antimycotic solution, 1% (v/v) non-essential amino acids and 1% (v/v) sodium pyruvate. HEK-293 Flp/In T-Rex cell lines were cultured in DMEM supplemented with 10% (v/v) FBS and 2 mM glutamine, 1×antibacterial/antimycotic solution, 100 μg/ml hygromycin and 15 μg/ml blasticidin. Supplementing the culture medium with 0.1 μg/ml doxycycline for 16–24 h induced protein expression in the HEK-293 Flp/In T-Rex cells. Cell counting was carried out using Invitrogen Countess following the manufacturer's protocol. A cell-detachment assay was carried out on HEK-293 cells using PBS-EDTA-based cell dissociation buffer as described previously. An inhibitor dose-dependence assay was carried out by treating the cells with various concentrations of the inhibitors as indicated in the Figure legends. The inhibitors were dissolved in DMSO and the total concentration of DMSO in the culture media never exceeded 1%. Transient transfections of HEK-293 cells were carried out using PEI [24]. Stable transfections were carried out in HEK-293 Flp/In T-Rex cells (Invitrogen) following the manufacturer's protocol. […]

[2] = test system: ACC Ser79 phosphorylation; experiment: ACC Ser79 phosphorylation on EDTA-induced detachment, HEK-293; format: cell-based, human; conditions: HEK-293, 16 h
Method: as §1

[3] = test system: MYPT1 phosphorylation; experiment: MYPT1 phosphorylation on detachment, U2OS; format: cell-based; conditions: 10 μM, 16 h
Method: Figure 7 NUAK1 inhibition suppresses cell proliferation (A) U2OS cells were incubated with or without 10 μM WZ4003 or 10 μM HTH-01-015 and a cell proliferation assay was carried out over 5 days in triplicate using the CellTiter 96® AQueous Non-Radioactive Cell Proliferation Assay kit (Promega) (as described in the Materials and methods section). U2OS cells in which NUAK1 has been knocked-down using two different shRNA hairpins were used in parallel as controls. The efficiency of the knock down of each shRNA is shown in top panel. SCR, control scrambled shRNA hairpin; shNUAK1 (1), first NUAK1 shRNA hairpin; shNUAK1 (2), second NUAK1 shRNA hairpin. (B) U2OS cells were treated with (+) or without (−) 10 μM WZ4003 or 10 μM HTH-01-015. After 16 h cell media was removed and cells were treated with EDTA-PBS-based cell dissociation buffer supplemented with 10 μM WZ4003, 10 μM HTH-01–015 or DMSO for 20 min. Cell detachment was induced with gentle tapping of the plates followed by gentle centrifugation at 70 g for 3 min. Cells were lysed immediately after removal of the media and immunoblotted for the detection of the indicated antibodies. (C and D) As above, except NUAK1^+/+ and NUAK1^−/− MEFs were used. Similar results were obtained in three separate experiments.

[4] = test system: U2OS cells; experiment: 3D Matrigel Transwell invasion assay; format: cell-based; conditions: 10 μM, 16 h, 10% FBS chemoattractant
Method: The ability of U2OS cells to invade in the presence or absence of 10 μM HTH-01-015 or WZ4003 was tested in a growth-factor-reduced Matrigel™ invasion chamber (BD Biosciences, catalogue number 354483) as described previously. Cells were serum-deprived for 2 h, detached using cell-dissociation buffer (Gibco), and 2.5×10^5 cells suspended in DMEM containing 1% (w/v) BSA were added to the upper chambers in triplicate and chemoattractant [DMEM containing 10% (v/v) FBS] was added to the lower wells. The chambers were kept at 37°C in 5% CO2 for 16 h in the presence or absence of 10 μM HTH-01-015 or WZ4003 both in the upper and lower wells. Non-invaded cells were removed from the upper face of the filters by scraping, and cells that had migrated to the lower face of the filters were fixed and stained with Reastain Quick-Diff kit (Reagena) and images (×10 magnification) were captured. For cell invasion assays, statistical significance was assessed using GraphPad Prism 5.0.

[5] = test system: MYPT1 Ser445 phosphorylation; experiment: MYPT1 Ser445 phosphorylation, HEK-293 Flp/In T-Rex overexpressing HA-NUAK1[A195T]; format: cell-based, human; conditions: cells expressing drug-resistant NUAK1[A195T]; 30 μM
Method: as §1

[6] = test system: MEFs; experiment: Cell proliferation assay (CellTiter 96 AQueous); format: cell-based, mouse; conditions: 10 μM, 5 days; same extent as NUAK1-knockout
Method: Cell proliferation assays were carried out colorimetrically in 96-well plates using the CellTiter 96® AQueous Non-Radioactive Cell Proliferation Assay kit (Promega) following the manufacturer's protocol. Initially, 2000 cells per well were seeded for U2OS cells and 3000 cells per well were seeded for MEFs. The proliferation assays were carried out over 5 days in the presence or absence of 10 μM HTH-01-015 or WZ4003.

| Structure (SMILES) | Suppression of MYPT1 phosphorylation (in words) [1] | Inhibition of ACC Ser79 phosphorylation induced by cell detachment (in words) [2] | Suppression of MYPT1 phosphorylation in U2OS cells (in words) [3] | Invasiveness of U2OS cells (in words) [4] | Block of MYPT1 Ser445 phosphorylation (in words) [5] | Proliferation of MEFs (in words) [6] |
| --- | --- | --- | --- | --- | --- | --- |
| Cc1nc(Nc2cnn(C3CCNCC3)c2)nc2c1N(C)C(=O)c1cc3ccccc3cc1N2C [HTH-01-015] | markedly suppressed | neither compound inhibited | to the same extent as shRNA-mediated NUAK1 knockdown | markedly inhibited the invasiveness | failed to block | suppressed proliferation |
| CCC(=O)Nc1cccc(Oc2nc(Nc3ccc(N4CCN(C)CC4)cc3OC)ncc2Cl)c1 [WZ4003] | markedly suppressed | neither compound inhibited | to the same extent as shRNA-mediated NUAK1 knockdown | markedly inhibited the invasiveness | failed to block | suppressed proliferation |
